Data from US6369101B1, “Therapeutic method to treat herpes virus infection” (Regents of the University of Minnesota, priority 1999, dated 2002).
Converted amounts (≈) assume the structure as drawn.

Columns and labels:
HSV-1 strain F = experiment: CPE inhibition, HSV-1 strain F in HEp-2 cells; as to Cytopathic Effect (CPE) Inhibition HSV-1 Strain F: key: +++ = Complete cytopathic effect; ++ = Moderate cytopathic effect; + = Minimum cytopathic effect; − = No cytopathic effect; assay type: cell-based, herpes simplex virus type 1; details: for Cytopathic Effect (CPE) Inhibition HSV-1 Strain F: conc. per compound (ng/ml)
[1] = system: Primary human foreskin fibroblast cells (HFF); experiment: Cell proliferation assay (cytotoxicity) in HFF cells; assay type: cell-based; details: for CC50: Human foreskin fibroblast cells, reduces growth of uninfected cells by 50%
[2] = system: Primary Rabbit Kidney cells; experiment: Cytotoxic effect in primary rabbit kidney cells; assay type: cell-based; details: for CC50: Primary Rabbit Kidney cell line
Experimental: Human laryngeal epithelial carcinoma cells (HEp-2, ATCC, Rockville, Md.) were used for testing of antiviral compounds by cytopathic effect (CPE) inhibition and plaque reduction assay. […] HEp-2, African green monkey kidney cells (Vero, ATCC), HFF and primary rabbit kidney cells were used to determine the cytotoxic effect of compounds of formula I. These cells were propagated in Dulbeco's modified Eagle's medium (DMEM) (Sigma, USA) supplemented with 10% inactivated fetal calf serum (FCS), 25 mM HEPES, 0.2% sodium bicarbonate and 1% penicillin/-streptomycin at 37° C. in the presence of 5% CO2.
HFF, Vero and HEp-2 cells were seeded in 24-well tissue culture plates at a concentration of […] in DMEM containing 10% FCS and incubated for 24 hours at 37° C. in the presence of 5% CO2. To the monolayer of these cells 0.5, 1.0, 1.5 and 2.0 ml of solution of antiviral compounds were added in the respective wells in duplicate and the cells were then incubated in a 5% CO2 incubator at 37° C. for 72 hours. The cells were observed daily for any change in morphology. […] At the end of this time, the media-drug solution was removed and the cells washed. One ml of 0.25% trypsin was added to each well and incubated until the cells start to come off of the plate. The cells-media mixture was then pipetted up and down several times to resuspend the cells and 0.2 ml of the cell suspension was added to 9.8 ml of trypan blue and cells were counted using hemocytometer. Each sample was counted three times with three replicate wells per sample.

HSV-1 (strain F) = experiment: Plaque reduction assay, HSV-1 strain F in HEp-2 cells; assay type: cell-based, herpes simplex virus type 1
Experimental: HEp-2 cells were grown to monolayer in 24 well tissue culture plates in DMEM containing 10% fetal calf serum at 37° C. for 24-36 hours in the presence of 5% CO2. The monolayer of HEp-2 cells was infected with 0.1 ml of HSV- 1 (strain F) or HSV-2 (strain G) containing 100 pfu. The viruses were allowed to adsorb for 1 hour at 37° C. in the presence of 5% CO2. All wells containing virus infected cells except virus control were overlaid with 0.9 ml of DMEM and 1 ml of test compound. The virus control and cell control received DMEM only. All microtiter plates were incubated at 37° C. in the presence of 5% CO2 and observed twice daily for 72 hours for viral CPE. At the end of the experiment, plates were stained with 0.1% crystal violet and the results were quantified by counting plaque forming units.

HSV-2 strain MS = experiment: CPE inhibition assay, HSV-2 MS in human foreskin fibroblast cells; assay type: cell-based, herpes simplex virus type 2; details: for EC50 HSV-2 MS: CPE inhibition in HFF cells; as to Qualitative CPE at 2.0 ml dose HSV-2 MS: key: +++ = Complete cytopathic effect; ++ = Moderate cytopathic effect; + = Minimum cytopathic effect; − = No cytopathic effect
HSV-1 (E377) [3] = experiment: Cutaneous HSV-1 infection in guinea pigs, topical ointment; assay type: in vivo, guinea pig; details: topical ointment (2% betulin, 2% allobetulin, 5% Acyclovir) twice daily for 3 days
HSV-1 (E377) [4] = experiment: Cutaneous HSV-1 infection in rats, topical ointment; assay type: in vivo, rat; details: for effect on cutaneous HSV-1 infection (in words): topical ointment (2% betulin, 2% allobetulin, 5% Acyclovir) twice daily for 3 days from 18 hours after infection
[5] = HFF cells, solution conc. per compound (ng/ml) (Acyclovir 250)

Row | Molecule | Cytopathic Effect (CPE) Inhibition HSV-1 Strain F (HSV-1 strain F) | CC50 ([1]; listed as Acyclovir ®) | CC50 ([1]; listed as Acyclovir®) | CC50 [2] | Plaque Reduction Assay Average pfu/10^5 Cells HSV-1 Strain F (HSV-1 (strain F); Conc. 12500 ng/ml, HSV-1 virus control 5) | Plaque Reduction Assay Average pfu/10^5 Cells HSV-1 Strain F (HSV-1 (strain F); Conc. 12500 ng/ml, HSV-1 virus control 5, listed as Acyclovir®) | EC50 HSV-2 MS (HSV-2 strain MS) | Qualitative CPE at 2.0 ml dose HSV-2 MS (HSV-2 strain MS; HFF cells, Conc. 12500 ng/ml) | Qualitative CPE at 2.0 ml dose HSV-2 MS (HSV-2 strain MS; [5]) | effect on cutaneous HSV-1 infection (in words) (HSV-1 (E377) [3]) | effect on cutaneous HSV-1 infection (in words) (HSV-1 (E377) [4]) | anti HSV-1 activity (in words) (HSV-1 strain F; qualitative CPE inhibition assay) | cytotoxicity (in words) ([1]; HFF cells) | Qualitative Cytotoxic Effect at 2.0 ml dose ([1]; HFF cells, solution conc. per compound (ng/ml) (Acyclovir 250), 2.0 ml dose) | CC50 [1] | cytotoxicity (in words) ([2]; primary rabbit kidney cells) | Plaque Reduction Assay Average pfu/10^5 Cells HSV-1 Strain F (HSV-1 (strain F); conc. per compound as in column Conc. (ng/ml), HSV-1 virus control 5) | Plaque Reduction Assay Average pfu/10^5 Cells HSV-1 Strain F (HSV-1 (strain F); conc. per compound as in column Conc. (ng/ml), HSV-1 virus control 5, listed as betulin) | anti HSV-2 activity (in words) (HSV-2 strain MS; HFF cells, HSV-2) | number of typical HSV lesions (HSV-1 (E377) [4]; HSV-1, by the 4th to 8th days of infection, 2% ointment twice daily for 3 days)
1 | acycloguanosine [Acyclovir, reference compound] | +++ | >12500 ng/mL | > 12,500 ng/ml | >0.25 µg/mL | 0 pfu/10^5 Cells | no plaque | 6 µg/mL | + | +++ | diminished the development of the clinical infectious process | same healing response |  |  |  |  |  |  |  |  | 
2 | C=C(C)[C@@H]1CC[C@]2(CO)CC[C@]3(C)[C@H](CC[C@@H]4[C@@]5(C)CC[C@H](O)C(C)(C)[C@@H]5CC[C@]43C)[C@@H]12 [Betulin, lup-20(29)-ene-3β, 28-diol, reference compound] | + |  |  | >0.25 µg/mL |  |  | ~0.125 µg/mL (≈ 0.282 µM) |  | + | diminished the development of the clinical infectious process | diminished the signs of the infectious process | significant anti HSV-1 activity | more toxic | − | 250 ng/mL (≈ 0.565 µM) | No cytotoxicity | 0 pfu/10^5 Cells | no plaque | significant anti HSV-2 activity | decreased rapidly
